# Patent US20230381322A1, “METHOD FOR PREPARING A DNA NETWORK WITH CONTROLLED CRYSTAL STRUCTURE AND A METHOD FOR INJECTING DRUGS USING THE DNA NETWORK” (UIF (University Industry Foundation), Yonsei University, priority 2022, published 2023)
# What was measured:
# [1] = test system: HeLa cell-implanted BALB/c nude mice xenografts; assay: Localized anticancer therapy, intratumoral injection; format: in vivo; details: single intratumoral injection, 2.5 mg/kg Dox, day 8
# Procedure: All animal experiments were performed in compliance with the relevant laws and institutional guidelines of the Korea Institute of Science and Technology (KIST; KIST-2020-108). To evaluate the anticancer effects of pDNets, tumor-bearing BALB/c nude mice were prepared by injecting a suspension of 5×10^6 cells per mouse. The mice were divided into five groups (n=5): (1) PBS, (2) free DOX, (3) pDNet-H, (4) pDNet-M, and (5) pDNet-L. Each mouse was injected intratumorally with 2.5 mg/kg Dox when the size of the tumors was approximately 100-150 mm ^3. The tumor volumes and body weights of each mouse were observed every 2 days for 8 days. The length (L) and width (W) of the tumors were measured, and tumor volumes (V) were calculated using the following formula: V=L×W^2×0.52. To assess the biocompatibility of the pDNets, mice in each group were sacrificed after 8 days and the major organs were excised. To assess the biosafety of pDNets, the excised organs were paraffin-embedded and cut into 5 μm sections. Hematoxylin and eosin (H&E) staining was performed to observe the histopathological changes.
# HeLa cells = assay: Cytotoxicity of released Dox, MTT assay; format: cell-based; details: HeLa cells treated 24 h with Dox-released incubation solutions of pH 5.0, 6.4, 7.4
# Procedure: Cell adhesion efficiencies were evaluated by incubating GelRed-labeled pDNets in cell media containing 2.5×10^5 Hela or NIH/3T3 cells for an hour. After the incubation, Calcein AM was used to stain the attached cells and the pDNets were washed three times with PBS. After staining, CLSM was used to visualize the respective fluorescence to determine the number of cells attached to each pDNet/mm^2. Evaluation of intracellular delivery of released Dox from pDNets was performed by loading pDNets with 20 nmol Dox. Dox-loaded pDNets were incubated in a pH 5.0, 6.4, and […] PBS solution for 32 h, which were then diluted 1, 2, and 4-fold with Dulbecco's modified Eagle's medium and used to treat 1×10^5 HeLa cells for 2 h. As a positive control, 20 nmol free Dox diluted similarly was used for treatment at final concentrations of 2, 4, and 8 μM to represent complete release of Dox. After the incubation, cell nuclei were stained with Hoechst and the intracellular delivery of Dox was compared using CLSM. […] After 24 h of treatment, cell viability was quantified using the MTT assay (Roche Diagnostics, Mannheim, Germany) following the manufacturer's protocol. […] The resulting formazan salts were dissolved by adding dimethyl sulfoxide, and the absorbance was measured at 570 nm using a multi-label microplate reader (Victor X5; Perkin Elmer).
structure (smiles),measurement,setting,value
"COc1cccc2c1C(=O)c1c(O)c3c(c(O)c1C2=O)C[C@@](O)(C(=O)CO)C[C@@H]3O[C@H]1C[C@H](N)[C@H](O)[C@H](C)O1 [free Dox, doxorubicin]",tumor volume reduction relative to the control group,[1],~35%
same,tumor weight reduction relative to the control group,[1],~35%
same,"in vitro therapeutic effect (cell viability, MTT)",HeLa cells,most effective in vitro
